Source: patent US20240043427A1 (Gilead Sciences, Inc., priority 2020, published 2024)

Assays:
CD73 [1] = target: T1, CD73 (Homo sapiens (Human), UniProt P21589); assay: MDA-MB-231 Cell Based CD73 Activity Assay (DMEM); details: MDA-MB-231-GFP cells, DMEM medium with 10% human plasma, 200 uM AMP
CD73 [2] = target: T1, CD73; assay type: biochemical; details: 1 mM NaH2PO4 in enzyme buffer, CD73 0.3 nM, AMP 15 uM

T1 sequence (P21589 27-574): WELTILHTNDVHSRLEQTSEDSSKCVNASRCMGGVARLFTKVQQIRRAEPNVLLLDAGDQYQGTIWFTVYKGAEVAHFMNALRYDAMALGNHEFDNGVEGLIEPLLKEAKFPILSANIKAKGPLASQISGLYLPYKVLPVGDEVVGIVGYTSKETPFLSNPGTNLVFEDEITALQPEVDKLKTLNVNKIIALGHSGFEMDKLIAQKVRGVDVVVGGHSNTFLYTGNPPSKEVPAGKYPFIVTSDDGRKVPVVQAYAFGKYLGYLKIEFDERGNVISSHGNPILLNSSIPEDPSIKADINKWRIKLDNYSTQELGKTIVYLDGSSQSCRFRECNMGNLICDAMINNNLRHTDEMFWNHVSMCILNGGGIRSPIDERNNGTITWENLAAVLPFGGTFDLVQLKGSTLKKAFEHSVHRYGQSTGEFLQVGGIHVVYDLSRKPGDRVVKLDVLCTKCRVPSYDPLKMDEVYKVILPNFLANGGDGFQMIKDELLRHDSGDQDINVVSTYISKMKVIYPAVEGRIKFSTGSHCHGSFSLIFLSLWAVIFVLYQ

Row | Structure (SMILES) | EC50 (CD73 [1]) [nM] | IC50 (CD73 [2]) [nM]
1 | O=C1N(CC(F)(F)F)c2cc([C@H]3C[C@@H]3c3cc(-c4c[nH]c(=O)[nH]c4=O)nn4ccnc34)ccc2C12CCCC2 [Example 387, 5-(8-((1S,2S)-2-(2′-oxo-1′-(2,2,2-trifluoroethyl)spiro[cyclopentane-1,3′-indolin]-6′-yl)cyclopropyl)imidazo[1,2-b]pyridazin-6-yl)pyrimidine-2,4(1H,3H)-dione] | 0.36 | 1.27
2 | O=C1N(CC(F)(F)F)c2cc([C@H]3C[C@@H]3c3cc(-c4c[nH]c(=O)[nH]c4=O)nn4c(Cl)cnc34)ccc2C12CC2 [Example 388, 5-(3-chloro-8-((1S,2S)-2-(2′-oxo-1′-(2,2,2-trifluoroethyl)spiro[cyclopropane-1,3′-indolin]-6′-yl)cyclopropyl)imidazo[1,2-b]pyridazin-6-yl)pyrimidine-2,4(1H,3H)-dione] | 0.21 | 0.41
3 | O=c1[nH]cc(-c2cc([C@H]3C[C@@H]3c3cc4c(cn3)c(F)cn4CC(F)(F)F)c3nccn3n2)c(=O)[nH]1 [Example 392, 5-(8-((1S,2S)-2-(3-fluoro-1-(2,2,2-trifluoroethyl)-1H-pyrrolo[3,2-c]pyridin-6-yl)cyclopropyl)imidazo[1,2-b]pyridazin-6-yl)pyrimidine-2,4(1H,3H)-dione] | 0.34 | 1.25
4 | O=c1[nH]cc(-c2cc([C@H]3C[C@@H]3c3ccc4c(F)nn(CC(F)(F)F)c4c3)c3nccn3n2)c(=O)[nH]1 [Example 393, 5-(8-((1S,2S)-2-(3-fluoro-1-(2,2,2-trifluoroethyl)-1H-indazol-6-yl)cyclopropyl)imidazo[1,2-b]pyridazin-6-yl)pyrimidine-2,4(1H,3H)-dione] | 0.16 | 0.74
5 | O=c1[nH]cc(-c2cc([C@H]3C[C@@H]3c3cc(C(F)(F)F)c4cccnc4c3)c3nccn3n2)c(=O)[nH]1 [Example 394, 5-(8-((1S,2S)-2-(5-(trifluoromethyl)quinolin-7-yl)cyclopropyl)imidazo[1,2-b]pyridazin-6-yl)pyrimidine-2,4(1H,3H)-dione] | > 250 | 5.94
6 | O=c1[nH]cc(-c2cc([C@H]3C[C@@H]3c3cnc4c(C(F)(F)F)cccc4c3)c3nccn3n2)c(=O)[nH]1 [Example 395, 5-(8-((1S,2S)-2-(8-(trifluoromethyl)quinolin-3-yl)cyclopropyl)imidazo[1,2-b]pyridazin-6-yl)pyrimidine-2,4(1H,3H)-dione] | 29.9 | 2.1
7 | O=c1[nH]cc(-c2cc(N3CC(F)(C(F)(F)F)C3)c3nccn3n2)c(=O)[nH]1 [Example 397, 5-(8-(3-fluoro-3-(trifluoromethyl)azetidin-1-yl)imidazo[1,2-b]pyridazin-6-yl)pyrimidine-2,4(1H,3H)-dione] | 22.5 | 15.3
8 | O=c1[nH]cc(-c2cc(N3CC4(CCC4)C3)c3nccn3n2)c(=O)[nH]1 [Example 398, 5-(8-(2-azaspiro[3.3]heptan-2-yl)imidazo[1,2-b]pyridazin-6-yl)pyrimidine-2,4(1H,3H)-dione] | 29.5 | 17.1
9 | CC1(C(F)F)CN(c2cc(-c3c[nH]c(=O)[nH]c3=O)nn3ccnc23)C1 [Example 399, 5-(8-(3-(difluoromethyl)-3-methylazetidin-1-yl)imidazo[1,2-b]pyridazin-6-yl)pyrimidine-2,4(1H,3H)-dione] | 27 | 12.2
10 | O=c1[nH]cc(-c2cc(N3CC(C4CC4(F)F)C3)c3nccn3n2)c(=O)[nH]1 (centres unmarked) [Example 400, 5-(8-(3-(2,2-difluorocyclopropyl)azetidin-1-yl)imidazo[1,2-b]pyridazin-6-yl)pyrimidine-2,4(1H,3H)-dione] | 547 | 207
11 | O=c1[nH]cc(-c2cc(N3CC(C4CCC4)C3)c3nccn3n2)c(=O)[nH]1 [Example 401, 5-(8-(3-cyclobutylazetidin-1-yl)imidazo[1,2-b]pyridazin-6-yl)pyrimidine-2,4(1H,3H)-dione] | 53 | 12.6
12 | O=c1[nH]cc(-c2cc(N3CC(F)(C(F)(F)F)C3)n3ncnc3n2)c(=O)[nH]1 [Example 402, 5-(7-(3-fluoro-3-(trifluoromethyl)azetidin-1-yl)-[1,2,4]triazolo[1,5-a]pyrimidin-5-yl)pyrimidine-2,4(1H,3H)-dione] | 136 | 53.2
13 | O=c1[nH]cc(-c2cc(N3CC(C(F)F)C3)c3nccn3n2)c(=O)[nH]1 [Example 403, 5-(8-(3-(difluoromethyl)azetidin-1-yl)imidazo[1,2-b]pyridazin-6-yl)pyrimidine-2,4(1H,3H)-dione] | 28.5 | 8.94
14 | O=c1[nH]cc(-c2cc(N3CC(C4CC4)C3)c3nccn3n2)c(=O)[nH]1 [Example 404, 5-(8-(3-cyclopropylazetidin-1-yl)imidazo[1,2-b]pyridazin-6-yl)pyrimidine-2,4(1H,3H)-dione] | 77.6 | 22.9

Other lines, results leading:

Row | EC50 (CD73 [1]) [nM] | IC50 (CD73 [2]) [nM] | Structure (SMILES)
15 | 21.6 | 8.3 | O=c1[nH]cc(-c2cc(N3CC4(CCC4(F)F)C3)c3nccn3n2)c(=O)[nH]1 [Example 405, 5-(8-(5,5-difluoro-2-azaspiro[3.3]heptan-2-yl)imidazo[1,2-b]pyridazin-6-yl)pyrimidine-2,4(1H,3H)-dione]
16 | 98.2 | 25.6 | O=c1[nH]cc(-c2cc(N3CC4(C3)CC4(F)F)c3nccn3n2)c(=O)[nH]1 [Example 406, 5-(8-(1,1-difluoro-5-azaspiro[2.3]hexan-5-yl)imidazo[1,2-b]pyridazin-6-yl)pyrimidine-2,4(1H,3H)-dione]
17 | 37.8 | 10.7 | CC(C)(F)C1CN(c2cc(-c3c[nH]c(=O)[nH]c3=O)nn3ccnc23)C1 [Example 409, 5-(8-(3-(2-fluoropropan-2-yl)azetidin-1-yl)imidazo[1,2-b]pyridazin-6-yl)pyrimidine-2,4(1H,3H)-dione]
18 | 928 | 817 | O=c1[nH]cc(-c2cc(C3CCOCC3)c3nccn3n2)c(=O)[nH]1 [Example 410, 5-(8-(tetrahydro-2H-pyran-4-yl)imidazo[1,2-b]pyridazin-6-yl)pyrimidine-2,4(1H,3H)-dione]
19 | 3.93 | 0.79 | N#Cc1ccc([C@H]2C[C@@H]2c2cc(-c3c[nH]c(=O)[nH]c3=O)nn3c(F)cnc23)cc1F [Example 415, 4-((1S,2S)-2-(6-(2,4-dioxo-1,2,3,4-tetrahydropyrimidin-5-yl)-3-fluoroimidazo[1,2-b]pyridazin-8-yl)cyclopropyl)-2-fluorobenzonitrile]
20 | 4.71 | 0.96 | O=c1[nH]cc(-c2cc([C@H]3C[C@@H]3c3ccc(C(F)F)cc3)c3nccn3n2)c(=O)[nH]1 [Example 418, 5-(8-((1S,2S)-2-(4-(difluoromethyl)phenyl)cyclopropyl)imidazo[1,2-b]pyridazin-6-yl)pyrimidine-2,4(1H,3H)-dione]
21 | 8.9 | 1.23 | O=c1[nH]cc(-c2cc([C@H]3C[C@@H]3c3ccc(C(F)F)cc3)c3ncc(F)n3n2)c(=O)[nH]1 [Example 419, 5-(8-((1S,2S)-2-(4-(difluoromethyl)phenyl)cyclopropyl)-3-fluoroimidazo[1,2-b]pyridazin-6-yl)pyrimidine-2,4(1H,3H)-dione]
22 | 13.7 | 4.87 | CC1(C)CN(c2cc(-c3c[nH]c(=O)[nH]c3=O)nc3ncnn23)CC1(F)F [Example 420, 5-(7-(3,3-difluoro-4,4-dimethylpyrrolidin-1-yl)-[1,2,4]triazolo[1,5-a]pyrimidin-5-yl)pyrimidine-2,4(1H,3H)-dione]
